In patent US20190350944A1, “NEUROACTIVE STEROID SOLUTIONS AND THEIR METHODS OF USE” (Sage Therapeutics, Inc., priority 2015, published 2019):

Assay: Degradation pathway for allopregnanolone in SBECD formulations
Type: physicochemical
From the text: FIG. 1 summarizes the two major degradation pathways found for allopregnanolone in SBECD formulations.

## CC(=O)[C@H]1CC[C@H]2[C@@H]3CC[C@H]4C[C@H](O)CC[C@]4(C)[C@H]3CC[C@]12C [allopregnanolone, 3 alpha-hydroxy-5 alpha-pregnan-20-one]
pH of ~6 or less
  major degradation pathway: epimerization of allopregnanolone to compound 1269
pH of ~6 or more
  major degradation pathway: oxidation of allopregnanolone to compound 136
